The test system of this test is CEM/LAV-1. The following applies: for TCID50/ml / Inhibition rate (%): CEM/LAV-1 cells cultured 96 hours; for TCID50/ml: titer by 72-hour culture on MT-4 cells, control 4 x 10^5; for Inhibition rate (%): versus control without agent. The procedure:
A test agent was added at predetermined concentrations to cells (2 x 10^5 cells/ml, 10 ml) persistently infected with HIV in a logarithmic growth phase to culture the cells for 96 hours. The number of viable cells and the number of killed cells were counted every 24 hours by a trypan blue dye exclusion test to determine the cytotoxic effect of the test agent on the cells. A viral infectious titer (TCID50/ml) in each of the culture solutions incubated for 96 hours was determined by 72-hour culture using, as an index, the giant cell formation of MT-4 cells. In a control group, the cells were cultured in a medium free of any agent. An anti-HIV activity (inhibition %) was determined in accordance with the following equation: Anti-HIV activity (inhibition %) =(TC)/(TC)x 100 [formula]

Molecules are shown by their SMILES. Where two headings read alike, the source gives them in different places.

Compound `CCCCCCCCCCCCCC(=O)OCC/C(SS/C(CCOC(=O)CCCCCCCCCCCCC)=C(/C)N(C=O)Cc1cnc(C)nc1N)=C(\C)N(C=O)Cc1cnc(C)nc1N` [compound (1), thiamine disulfide dimyristate] returned an inhibitory effect (CEM/LAV-1 cells, concentration of from 50 to 125 µm) of roughly 100%. Moreover, under “Invention compound 50 µM”, the TCID50/ml is given as 8 x 10^2 TCID50/ml and the “Inhibition rate (%)” value is 99.5%. Besides, under “Invention compound 125 µM”, the TCID50/ml is listed as 8 x 10^2 TCID50/ml and the “Inhibition rate (%)” value stood at 99.5%.

The record behind these values is patent EP0880966A1, “THIAMINE DISULFIDES AND MEDICINES CONTAINING THE SAME AS THE ACTIVE INGREDIENT” (NISSUI PHARMACEUTICAL CO., LTD., priority 1996, dated 1998).
